tested on: not listed separately; experiment: Antiproliferative activity against human SW620 cells assessed as growth inhibition after 48 hrs by sulforhodamine B assay; format: functional; conditions: SW-620, 48 h

| SMILES | GI50 | TGI |
| --- | --- | --- |
| CNC(=O)c1cc(Oc2ccc(NC(=O)Nc3ccc(Cl)c(C(F)(F)F)c3)cc2)ccn1 [SORAFENIB] | 2.51 µM | 12.6 µM |

same assay, conditions: SW-620, 48 h, read-out: LC50 (the source's name)

| SMILES | CC50 |
| --- | --- |
| CNC(=O)c1cc(Oc2ccc(NC(=O)Nc3ccc(Cl)c(C(F)(F)F)c3)cc2)ccn1 [SORAFENIB] | 39.8 µM |

tested on: MCF7; experiment: Antiproliferative activity against human MCF7 cells assessed as growth inhibition after 48 hrs by sulforhodamine B assay; format: functional; conditions: MCF7, 48 h

| SMILES | GI50 | TGI |
| --- | --- | --- |
| CNC(=O)c1cc(Oc2ccc(NC(=O)Nc3ccc(Cl)c(C(F)(F)F)c3)cc2)ccn1 [SORAFENIB] | 2.51 µM | 7.94 µM |

same assay, conditions: MCF7, 48 h, read-out: LC50 (the source's name)

| SMILES | CC50 |
| --- | --- |
| CNC(=O)c1cc(Oc2ccc(NC(=O)Nc3ccc(Cl)c(C(F)(F)F)c3)cc2)ccn1 [SORAFENIB] | 50.1 µM |

tested on: NCI-H226; experiment: Antiproliferative activity against human NCI-H226 cells assessed as growth inhibition after 48 hrs by sulforhodamine B assay; format: functional; conditions: NCI-H226, 48 h

| SMILES | GI50 | TGI |
| --- | --- | --- |
| CNC(=O)c1cc(Oc2ccc(NC(=O)Nc3ccc(Cl)c(C(F)(F)F)c3)cc2)ccn1 [SORAFENIB] | 2 µM | 7.94 µM |

same assay, conditions: NCI-H226, 48 h, read-out: LC50 (the source's name)

| SMILES | CC50 |
| --- | --- |
| CNC(=O)c1cc(Oc2ccc(NC(=O)Nc3ccc(Cl)c(C(F)(F)F)c3)cc2)ccn1 [SORAFENIB] | 31.6 µM |

tested on: not listed separately; experiment: Antiproliferative activity against human DU145 cells assessed as growth inhibition after 48 hrs by sulforhodamine B assay; format: functional; conditions: DU-145, 48 h

| SMILES | GI50 | TGI |
| --- | --- | --- |
| CNC(=O)c1cc(Oc2ccc(NC(=O)Nc3ccc(Cl)c(C(F)(F)F)c3)cc2)ccn1 [SORAFENIB] | 3.16 µM | 10 µM |

same assay, conditions: DU-145, 48 h, read-out: LC50 (the source's name)

| SMILES | CC50 |
| --- | --- |
| CNC(=O)c1cc(Oc2ccc(NC(=O)Nc3ccc(Cl)c(C(F)(F)F)c3)cc2)ccn1 [SORAFENIB] | 50.1 µM |

tested on: not listed separately; experiment: Antiproliferative activity against human SNB75 cells assessed as growth inhibition after 48 hrs by sulforhodamine B assay; format: functional; conditions: SNB-75, 48 h

| SMILES | GI50 | TGI |
| --- | --- | --- |
| CNC(=O)c1cc(Oc2ccc(NC(=O)Nc3ccc(Cl)c(C(F)(F)F)c3)cc2)ccn1 [SORAFENIB] | 3.16 µM | 10 µM |

same assay, conditions: SNB-75, 48 h, read-out: LC50 (the source's name)

| SMILES | CC50 |
| --- | --- |
| CNC(=O)c1cc(Oc2ccc(NC(=O)Nc3ccc(Cl)c(C(F)(F)F)c3)cc2)ccn1 [SORAFENIB] | 39.8 µM |

tested on: SR; experiment: Antiproliferative activity against human SR cells assessed as growth inhibition after 48 hrs by sulforhodamine B assay; format: functional; conditions: not given

| SMILES | GI50 | TGI |
| --- | --- | --- |
| CNC(=O)c1cc(Oc2ccc(NC(=O)Nc3ccc(Cl)c(C(F)(F)F)c3)cc2)ccn1 [SORAFENIB] | 3.16 µM | 100 µM |
